In US11395857B2, “Radiolabeled melanocortin 1 receptor-specific alpha-melanocyte-stimulating hormone analogues for imaging or therapy” (PROVINCIAL HEALTH SERVICES AUTHORITY, priority 2018, dated 2022):
Like-named read-outs stand apart in the source and are kept apart here.

Assay: Biodistribution of 68Ga-labeled peptide in mice bearing B16F10 mouse melanoma
Assay type: in vivo, C57BL/6J mice
Conditions: iv, total radioactivity; for tissue uptake at 2 h: 2 h p.i. unblocked
Protocol: The B16-F10 melanoma cell line (Mus musculus) used in the tumor model was obtained commercially from ATTC (CRL-6475). Cells were cultured in Dulbecco's Modified Eagle's Medium (DMEM, StemCell Technologies) supplemented by 10% FBS, 100 U/mL penicillin and 100 μg/mL streptomycin at 37° C. in a humidified incubator containing 5% CO2. Cells grown to roughly 90% confluence were washed with sterile phosphate-buffered saline (lx PBS, pH 7.4), followed by trypsinization. For tumour implantation, C57BL/6J mice were anesthetized by inhalation with 2% isoflurane in 2.0 L/min of oxygen, 2×10^6 B16-F10 cells were inoculated subcutaneously on right dorsal flank. Mice were imaged or used in biodistribution studies once the tumour reached 6-8 mm in diameter.
Similar to PET/CT imaging, tumour-bearing mice were injected with 1-2 MBq of ^68Ga-labeled CCZ01099 via tail vein under anesthesia with or without co-injection of 0.5 mg of MC1R-specific inhibitor BMS 470539. At 1 or 2 h p.i., the mice were anesthetized again, and euthanized by CO2 inhalation. Blood was promptly withdrawn, and the organs of interest were harvested, rinsed with 1×PBS (pH 7.4), and blotted dry. Each organ was then weighed and the radioactivity of the collected tissue was measured using a Wallac WIZARD2 gamma counter (Perkin Elmer), normalized to the injected dose using a standard curve and expressed as the percentage of the injected dose per gram of tissue (% ID/g). Table 3 summarizes the biodistribution data of ^68Ga-labeled CCZ01099 at 1 and 2 h p.i., as well as 1 h p.i. with co-injection of 0.5 mg of MC1R-specific inhibitor BMS 470539. Minimal background tissue radioactivity accumulation was observed, except for kidney, which is expected as the radiolabeled peptides were cleared through the renal pathway.

tissue uptake at 1 h (B16F10 tumour, 1 h p.i. unblocked, C57BL/6J mice, B16F10 melanoma, read-out: Biodistribution, B16F10 tumour): 6.12 ± 1.43 %ID/g | tissue uptake at 2 h (B16F10 tumour, C57BL/6J mice, B16F10 melanoma, read-out: Biodistribution, B16F10 tumour): 5.22 ± 1.3 %ID/g | tissue uptake at 1 h (C57BL/6J, B16F10 tumour, with BMS 470539 (MC1R-specific inhibitor), 0.5 mg co-injected, 1 h p.i. blocked, co-injection of 0.5 mg BMS 470539, read-out: Biodistribution, B16F10 tumour): 0.6 ± 0.15 %ID/g | tissue uptake at 1 h (C57BL/6J, adrenal glands, with BMS 470539 (MC1R-specific inhibitor), 0.5 mg co-injected, 1 h p.i. blocked, co-injection of 0.5 mg BMS 470539, read-out: Biodistribution, Adrenal glands): 0.45 ± 0.29 %ID/g | tissue uptake at 1 h (C57BL/6J, bone, with BMS 470539 (MC1R-specific inhibitor), 0.5 mg co-injected, 1 h p.i. blocked, co-injection of 0.5 mg BMS 470539, read-out: Biodistribution, Bone): 0.17 ± 0.1 %ID/g | tissue uptake at 1 h (C57BL/6J, brain, with BMS 470539 (MC1R-specific inhibitor), 0.5 mg co-injected, 1 h p.i. blocked, co-injection of 0.5 mg BMS 470539, read-out: Biodistribution, Brain): 0.03 ± 0.02 %ID/g | tissue uptake at 1 h (C57BL/6J, fat, with BMS 470539 (MC1R-specific inhibitor), 0.5 mg co-injected, 1 h p.i. blocked, co-injection of 0.5 mg BMS 470539, read-out: Biodistribution, Fat): 0.04 ± 0.02 %ID/g | tissue uptake at 1 h (C57BL/6J, heart, with BMS 470539 (MC1R-specific inhibitor), 0.5 mg co-injected, 1 h p.i. blocked, co-injection of 0.5 mg BMS 470539, read-out: Biodistribution, Heart): 0.13 ± 0.02 %ID/g | tissue uptake at 1 h (C57BL/6J, intestine, with BMS 470539 (MC1R-specific inhibitor), 0.5 mg co-injected, 1 h p.i. blocked, co-injection of 0.5 mg BMS 470539, read-out: Biodistribution, Intestine): 0.17 ± 0.05 %ID/g | tissue uptake at 1 h (C57BL/6J, kidneys, with BMS 470539 (MC1R-specific inhibitor), 0.5 mg co-injected, 1 h p.i. blocked, co-injection of 0.5 mg BMS 470539, read-out: Biodistribution, Kidneys): 2.62 ± 0.91 %ID/g | tissue uptake at 1 h (C57BL/6J, liver, with BMS 470539 (MC1R-specific inhibitor), 0.5 mg co-injected, 1 h p.i. blocked, co-injection of 0.5 mg BMS 470539, read-out: Biodistribution, Liver): 0.38 ± 0.11 %ID/g | tissue uptake at 1 h (C57BL/6J, lungs, with BMS 470539 (MC1R-specific inhibitor), 0.5 mg co-injected, 1 h p.i. blocked, co-injection of 0.5 mg BMS 470539, read-out: Biodistribution, Lungs): 0.34 ± 0.13 %ID/g | tissue uptake at 1 h (C57BL/6J, muscle, with BMS 470539 (MC1R-specific inhibitor), 0.5 mg co-injected, 1 h p.i. blocked, co-injection of 0.5 mg BMS 470539, read-out: Biodistribution, Muscle): 0.08 ± 0.03 %ID/g | tissue uptake at 1 h (C57BL/6J, pancreas, with BMS 470539 (MC1R-specific inhibitor), 0.5 mg co-injected, 1 h p.i. blocked, co-injection of 0.5 mg BMS 470539, read-out: Biodistribution, Pancreas): 0.08 ± 0.01 %ID/g | tissue uptake at 1 h (C57BL/6J, seminal glands, with BMS 470539 (MC1R-specific inhibitor), 0.5 mg co-injected, 1 h p.i. blocked, co-injection of 0.5 mg BMS 470539, read-out: Biodistribution, Seminal glands): 0.07 ± 0.03 %ID/g | tissue uptake at 1 h (C57BL/6J, spleen, with BMS 470539 (MC1R-specific inhibitor), 0.5 mg co-injected, 1 h p.i. blocked, co-injection of 0.5 mg BMS 470539, read-out: Biodistribution, Spleen): 0.52 ± 0.28 %ID/g | tissue uptake at 1 h (C57BL/6J, stomach, with BMS 470539 (MC1R-specific inhibitor), 0.5 mg co-injected, 1 h p.i. blocked, co-injection of 0.5 mg BMS 470539, read-out: Biodistribution, Stomach): 0.19 ± 0.12 %ID/g | tissue uptake at 1 h (C57BL/6J, testes, with BMS 470539 (MC1R-specific inhibitor), 0.5 mg co-injected, 1 h p.i. blocked, co-injection of 0.5 mg BMS 470539, read-out: Biodistribution, Testes): 0.1 ± 0.02 %ID/g | tissue uptake at 1 h (C57BL/6J, thyroid, with BMS 470539 (MC1R-specific inhibitor), 0.5 mg co-injected, 1 h p.i. blocked, co-injection of 0.5 mg BMS 470539, read-out: Biodistribution, Thyroid): 0.13 ± 0.05 %ID/g | tissue uptake at 1 h (C57BL/6J, whole blood, with BMS 470539 (MC1R-specific inhibitor), 0.5 mg co-injected, 1 h p.i. blocked, co-injection of 0.5 mg BMS 470539, read-out: Biodistribution, Blood): 0.27 ± 0.04 %ID/g | tissue uptake at 1 h (adrenal glands, 1 h p.i. unblocked, C57BL/6J mice, B16F10 melanoma, read-out: Biodistribution, Adrenal glands): 0.71 ± 0.67 %ID/g | tissue uptake at 2 h (adrenal glands, C57BL/6J mice, B16F10 melanoma, read-out: Biodistribution, Adrenal glands): 0.33 ± 0.19 %ID/g | tissue uptake at 1 h (bone, 1 h p.i. unblocked, C57BL/6J mice, B16F10 melanoma, read-out: Biodistribution, Bone): 0.32 ± 0.16 %ID/g | tissue uptake at 2 h (bone, C57BL/6J mice, B16F10 melanoma, read-out: Biodistribution, Bone): 0.1 ± 0.03 %ID/g | tissue uptake at 1 h (brain, 1 h p.i. unblocked, C57BL/6J mice, B16F10 melanoma, read-out: Biodistribution, Brain): 0.05 ± 0.04 %ID/g | tissue uptake at 2 h (brain, C57BL/6J mice, B16F10 melanoma, read-out: Biodistribution, Brain): 0.01 %ID/g | tissue uptake at 1 h (fat, 1 h p.i. unblocked, C57BL/6J mice, B16F10 melanoma, read-out: Biodistribution, Fat): 0.09 ± 0.04 %ID/g | tissue uptake at 2 h (fat, C57BL/6J mice, B16F10 melanoma, read-out: Biodistribution, Fat): 0.02 ± 0.01 %ID/g | tissue uptake at 1 h (heart, 1 h p.i. unblocked, C57BL/6J mice, B16F10 melanoma, read-out: Biodistribution, Heart): 0.26 ± 0.07 %ID/g | tissue uptake at 2 h (heart, C57BL/6J mice, B16F10 melanoma, read-out: Biodistribution, Heart): 0.08 ± 0.01 %ID/g | tissue uptake at 1 h (intestine, 1 h p.i. unblocked, C57BL/6J mice, B16F10 melanoma, read-out: Biodistribution, Intestine): 0.37 ± 0.11 %ID/g | tissue uptake at 2 h (intestine, C57BL/6J mice, B16F10 melanoma, read-out: Biodistribution, Intestine): 0.53 ± 0.38 %ID/g | tissue uptake at 1 h (kidneys, 1 h p.i. unblocked, C57BL/6J mice, B16F10 melanoma, read-out: Biodistribution, Kidneys): 5.98 ± 1.24 %ID/g | tissue uptake at 2 h (kidneys, C57BL/6J mice, B16F10 melanoma, read-out: Biodistribution, Kidneys): 4.42 ± 0.55 %ID/g | tissue uptake at 1 h (liver, 1 h p.i. unblocked, C57BL/6J mice, B16F10 melanoma, read-out: Biodistribution, Liver): 0.54 ± 0.07 %ID/g | tissue uptake at 2 h (liver, C57BL/6J mice, B16F10 melanoma, read-out: Biodistribution, Liver): 0.44 ± 0.08 %ID/g | tissue uptake at 1 h (lungs, 1 h p.i. unblocked, C57BL/6J mice, B16F10 melanoma, read-out: Biodistribution, Lungs): 0.74 ± 0.14 %ID/g | tissue uptake at 2 h (lungs, C57BL/6J mice, B16F10 melanoma, read-out: Biodistribution, Lungs): 0.31 ± 0.05 %ID/g | tissue uptake at 1 h (muscle, 1 h p.i. unblocked, C57BL/6J mice, B16F10 melanoma, read-out: Biodistribution, Muscle): 0.17 ± 0.05 %ID/g | tissue uptake at 2 h (muscle, C57BL/6J mice, B16F10 melanoma, read-out: Biodistribution, Muscle): 0.04 %ID/g | tissue uptake at 1 h (pancreas, 1 h p.i. unblocked, C57BL/6J mice, B16F10 melanoma, read-out: Biodistribution, Pancreas): 0.17 ± 0.04 %ID/g | tissue uptake at 2 h (pancreas, C57BL/6J mice, B16F10 melanoma, read-out: Biodistribution, Pancreas): 0.07 ± 0.01 %ID/g | tissue uptake at 1 h (seminal glands, 1 h p.i. unblocked, C57BL/6J mice, B16F10 melanoma, read-out: Biodistribution, Seminal glands): 0.11 ± 0.05 %ID/g | tissue uptake at 2 h (seminal glands, C57BL/6J mice, B16F10 melanoma, read-out: Biodistribution, Seminal glands): 0.04 ± 0.01 %ID/g | tissue uptake at 1 h (spleen, 1 h p.i. unblocked, C57BL/6J mice, B16F10 melanoma, read-out: Biodistribution, Spleen): 0.35 ± 0.07 %ID/g | tissue uptake at 2 h (spleen, C57BL/6J mice, B16F10 melanoma, read-out: Biodistribution, Spleen): 0.19 ± 0.03 %ID/g | tissue uptake at 1 h (stomach, 1 h p.i. unblocked, C57BL/6J mice, B16F10 melanoma, read-out: Biodistribution, Stomach): 0.26 ± 0.15 %ID/g | tissue uptake at 2 h (stomach, C57BL/6J mice, B16F10 melanoma, read-out: Biodistribution, Stomach): 0.2 ± 0.16 %ID/g | tissue uptake at 1 h (testes, 1 h p.i. unblocked, C57BL/6J mice, B16F10 melanoma, read-out: Biodistribution, Testes): 0.21 ± 0.06 %ID/g | tissue uptake at 2 h (testes, C57BL/6J mice, B16F10 melanoma, read-out: Biodistribution, Testes): 0.07 ± 0.01 %ID/g | tissue uptake at 1 h (thyroid, 1 h p.i. unblocked, C57BL/6J mice, B16F10 melanoma, read-out: Biodistribution, Thyroid): 0.31 ± 0.08 %ID/g | tissue uptake at 2 h (thyroid, C57BL/6J mice, B16F10 melanoma, read-out: Biodistribution, Thyroid): 0.16 ± 0.03 %ID/g | tissue uptake at 1 h (whole blood, 1 h p.i. unblocked, C57BL/6J mice, B16F10 melanoma, read-out: Biodistribution, Blood): 0.7 ± 0.15 %ID/g | tissue uptake at 2 h (whole blood, C57BL/6J mice, B16F10 melanoma, read-out: Biodistribution, Blood): 0.19 ± 0.01 %ID/g
Compound: CCCC[C@H](NC(=O)CN1CCC(NC(=O)CN2CCN(CC(=O)O)CCN(CC(=O)O)CCN(CC(=O)O)CC2)CC1)C(=O)N[C@H]1CC(=O)NCCCC[C@@H](C(N)=O)N(C)C(=O)[C@H](Cc2c[nH]c3ccccc23)N(C)C(=O)[C@H](CCCNC(=N)N)N(C)C(=O)[C@@H](Cc2ccccc2)NC(=O)[C@H](Cc2c[nH]cn2)N(C)C1=O [^68Ga-labeled CCZ01099, metal not drawn]
